According to patent US20220304976A1, “Method of simultaneously treating viral disease caused coronavirus, its variants and mutants using a pharmaceutical micronutrient composition” (priority 2021, published 2022):

Tested on: A549 cells expressing SARS-CoV-2 spike protein fusing with A549 cells overexpressing hACE2
Type: cell-based, human

Row | Compound | decrease of cell attachment (cell-cell fusion) | reduction of cell-cell fusion (in words)
1 | Oc1ccc2c(c1)OC[C@]1(O)Cc3cc(O)c(O)cc3[C@H]21 [Brazilin] | 40% | can reduce cell-cell fusion
2 | COc1cc(/C=C/C(=O)CC(=O)/C=C/c2ccc(O)c(OC)c2)ccc1O [Curcumin] |  | can reduce cell-cell fusion
3 | Theaflavine-3′3-digallate |  | can reduce cell-cell fusion
